Data taken from patent US10022366B2, “Extending and maintaining micropore viability of microneedle treated skin with lipid biosynthesis inhibitors for sustained drug delivery” (University of Maryland, Baltimore, priority 2013, dated 2018).
Structures can show the parent of a compound that is named as a salt.

Assays:
[1] = Irritation in the MN-treated animal models (data not shown); format: in vivo; settings: FLU deposition vehicle on MN-treated animal models
Experimental: (§1) In order to optimize FLU skin concentration and NTX flux, in certain embodiments, four different methods were chosen for FLU deposition. […] Ethanol (200 proof) was chosen for in vivo studies because it is a frequently used topical excipient and most of the 40 μl ethanol used was allowed to evaporate before application of the drug gel. […] The other two formulations tested contained either 70% or 25% PG. […] See Ghosh P. et al., 2013. Development of a codrug approach for sustained delivery across MN treated skin. […] See Milewski M., Stinchcomb A 2011. Vehicle Composition Influence on the MN-Enhanced Transdermal Flux of Naltrexone Hydrochloride. Pharmaceutical Research 28: 124-134. The formulations also contained large amounts of ethanol, a known permeation enhancer, and evaporation of the ethanol from these was not as efficient due to the presence of PG. Solubility of FLU was not an issue with any of the formulations. Therefore, in a preferred embodiment, 40 μl of 1.5% FLU in 200 proof ethanol was chosen as the vehicle for FLU deposition. Ethanol is a well-known chemical enhancer used in the topical/transdermal industry. It acts by replacing the water molecules in the lipid polar head groups as well as the protein regions of the SC, thus enhancing free volume and permeability of molecules across the skin. See Feingold K R 2009. The outer frontier: the importance of lipid metabolism in the skin. […]

[2] = In vitro diffusion studies across MN treated skin (NTX flux, NTX and FLU skin concentration); format: in vitro ADME, Yucatan miniature pig; settings: p>0.05
Excerpt: NTX and FLU were quantified using high pressure liquid chromatography (HPLC). The HPLC system consisted of a Waters 717 plus auto-sampler, a Waters 600 quaternary pump, and a Waters 2487 dual wavelength absorbance detector with Waters Empower™ software. A Perkin Elmer Brownlee™ Spheri 5 VL C18 column (5μ, 220×4.6 mm) and a C18 guard column (15×3.2 mm) were used with the UV detector set at a wavelength of 280 nm for NTX and 305 nm for FLU. The mobile phase consisted of 65:35 (v/v) ACN: (0.1% TFA with 0.065% 1-octane sulfonic acid sodium salt, adjusted to pH 3.0 with TEA aqueous phase). Samples were run at a flow rate of 1.5 ml/min. The injection volume used was […] for all samples.
In vitro studies were performed to look at the flux across MN treated skin and the skin concentrations of NTX and FLU in the skin. Full-thickness Yucatan miniature pig skin was used for all in vitro experiments. All pig tissue harvesting experiments were done under IACUC approved protocols at the University of Kentucky. Fresh skin was cleaned to remove excess subcutaneous fat, dermatomed and stored at −20° C. Skin was thawed and cut into small square pieces on the day of the diffusion experiment. The thickness was measured for each individual piece of skin and the average thickness of all treatment groups was maintained between 1.4-1.8 mm. Skin was next treated with a 5 MN in-plane array, 10 times in one direction and 10 times in a mutually perpendicular direction to generate a total of 100 MN insertions within the active treatment area of 0.95 cm^2. Five treatment groups were used based on the 4 different vehicles used for FLU and a control for NTX only; all studies were done in triplicate. […] All samples were analyzed using HPLC. The steady state flux of NTX was calculated using the steady state portion of the cumulative amount permeated vs. time plot. The skin concentrations of both drugs were also determined at the end of the study by extracting the drug overnight into 10 mL of ACN, and injecting the extracted sample onto the HPLC column after appropriate dilutions. […]

[3] = Reversibility/recovery of pores by transepidermal water loss (TEWL); format: in vivo, hairless guinea pigs (HGP); settings: after removal of occlusion at 7 days; compared among the 5 treatment sites; p>0.05
Excerpt: The reversibility/recovery of the pores following removal of occlusion was studied using transepidermal water loss (TEWL) in a HGP model. Five different sites were chosen on the dorsal region of an animal. […] All sites were marked and cleaned on the day of the treatment. […] The concentration and amount of NTX gel and FLU were consistent with the PK studies. A placebo gel was used for site 3 and site 4. The placebo gel was similar in composition to the NTX gel with 10% PG, 1% benzyl alcohol and 3% HEC as the gelling agent. […] All sites were occluded using a transdermal patch (148) secured in place with Bioclusive™ tape. […] All experiments were conducted at least in triplicate. Recovery of the skin, (i.e., regeneration of the barrier function of the SC) was studied using TEWL. These studies were carried out to look at the effect of the local concentration of FLU on the recovery/healing of the skin following removal of occlusion.

[4] = Skin irritation by colorimetry (change in erythema, Δa*); format: in vivo, hairless guinea pigs (HGP); settings: immediately following treatment or following removal of the patches at 7 days; among treatment groups; p>0.05
Experimental: Local skin irritation can be one of the major drawbacks of topical/transdermal delivery, so irritation studies were conducted to look at the effect of local FLU treatment of the skin in HGP. The studies were conducted using the same treatment groups as the recovery studies. Colorimeter (Chroma Meter CR-400, Konica, Minolta, Japan) readings were obtained, in triplicate, at each site before and immediately after the treatment. The data were used to record changes in the color of the skin from baseline based on 3 different color axes, the red-green axis (a*), the black-white axis (L*) and the yellow-blue axis (b*). […] The degree of redness of the skin or the change in erythema of the skin was measured by the change in the red green axis (Δa*) values. Skin irritation studies were conducted in triplicate.

[5] = Solubility of FLU in the deposition formulations; format: physicochemical; settings: in the four deposition formulations (ethanol, acetone, PG-ethanol, PG-ethanol-water)
Experimental: as §1

[6] = cited from earlier work
[7] = humans; cited from earlier work
[8] = Pharmacokinetic studies of NTX after MN treatment with or without FLU; settings: for AUC / Cmax / Tmax: hairless, guinea pig, plasma
[9] = using MN, humans, no pore lifetime enhancer; cited from earlier work
[10] = daily/alternate day topical application; compared to 2-3 days without pore lifetime enhancement agent; cited from earlier work
[11] = established positive control treatment in HGP, 0.5% solution; cited from earlier work

Q: With `CC(C)=O` [Acetone, acetone] as the compound, how does the irritation [1] read?
A: caused irritation

Q: With `CC(C)n1c(/C=C/C(O)CC(O)CC(=O)O)c(-c2ccc(F)cc2)c2ccccc21` (stereo not shown) [FLU, fluvastatin sodium] as the compound, how does the “concentration of FLU in the skin” value ([2]; irrespective of the method of FLU deposition, 1.5% FLU, 40 μl) read?
A: no significant difference

Q: What about the “recovery of the skin (TEWL enhancement ratio over baseline)” value [3] of the same compound?
A: no significant differences

Q: What about the “change in erythema (Δa*)” value [4] of the same compound?
A: no significant differences

Q: What about the solubility [5] of the same compound?
A: not an issue

Q: And the “log P” value [6]?
A: 4.6

Q: And the pKa [6]?
A: 4.27

Q: And the oral bioavailability [7]?
A: 9-50%

Q: What about the “enhancement of drug delivery (window)” value ([8]; NTX delivery across MN-treated skin with addition of FLU) of the same compound?
A: 7 days

Q: For `O=C1CC[C@@]2(O)[C@H]3Cc4ccc(O)c5c4[C@@]2(CCN3CC2CC2)[C@H]1O5` [NTX, Naltrexone HCL], which “flux across MN treated skin” value ([2]; NTX flux compared among the 5 treatment groups (4 FLU vehicles, NTX only control)) is on record?
A: no significant difference

Q: And the “concentration of NTX in the skin” value ([2]; irrespective of the method of FLU deposition)?
A: no significant difference

Q: What about the “duration of delivery at therapeutic levels” value [9] of the same compound?
A: 2 to 3 days

Q: And the plasma concentrations ([8]; NTX, FLU treatment group, throughout the range of the study (168 h))?
A: above 2 ng/mL

Q: And the “lag time with MN enhanced delivery” value ([8]; NTX, any of the three groups)?
A: no lag time observed

Q: What about the “time after treatment at which drug was quantified in plasma” value ([8]; NTX, patch system on MN treated skin) of the same compound?
A: ≤ 15 min

Q: And the plasma concentrations ([8]; NTX, vehicle control (ethanol), beyond 144 h)?
A: below 2 ng/mL

Q: And the “time for which detectable levels of NTX were present in the plasma” value ([8]; all study groups, HGP)?
A: 72 h

Q: And the “NTX concentration in the plasma” value ([8]; ethanol treated group, at 7 days)?
A: < 2 ng/mL

Q: And the AUC ([8]; topical or ocular, 200 μL NTX gel, NTX in plasma, HGP, MN control: MN + NTX gel)?
A: 0.614 ± 0.213 µg·h/mL

Q: And the Cmax ([8]; topical or ocular, 200 μL NTX gel, NTX in plasma, HGP, MN control: MN + 200 μL NTX gel, n=3)?
A: 0.0394 ± 0.0115 µg/mL

Q: And the Tmax ([8]; topical or ocular, 200 μL NTX gel, Tmax, NTX in plasma, HGP, MN control: MN + NTX gel)?
A: 2.8 ± 2 h

Q: And the AUC ([8]; topical or ocular, NTX in plasma, HGP, Treatment group: MN + NTX gel + FLU in ethanol)?
A: 1.41 ± 1.04 µg·h/mL

Q: What about the AUC ([8]; topical or ocular, NTX in plasma, HGP, Vehicle control: MN + NTX gel + ethanol) of the same compound?
A: 1.7 ± 1.67 µg·h/mL

Q: And the Cmax ([8]; topical or ocular, NTX in plasma, HGP, Treatment group: MN + 300 μL NTX gel + 40 μL FLU in ethanol (200 proof), n=3)?
A: 0.0381 ± 0.0197 µg/mL

Q: What about the Cmax ([8]; topical or ocular, NTX in plasma, HGP, Vehicle control: MN + 300 μL NTX gel + 40 μL ethanol (200 proof), n=4) of the same compound?
A: 0.0393 ± 0.0192 µg/mL

Q: And the Tmax ([8]; topical or ocular, Tmax, NTX in plasma, HGP, Treatment group: MN + NTX gel + FLU in ethanol)?
A: 2.7 ± 3.8 h

Q: What about the Tmax ([8]; topical or ocular, Tmax, NTX in plasma, HGP, Vehicle control: MN + NTX gel + ethanol) of the same compound?
A: 1.4 ± 1.7 h

Q: What about the Tmax ([8]; topical, Tmax or time to maximum plasma concentration, NTX, all studies) of the same compound?
A: 0.25 to 4 h

Q: And the NTX levels ([8]; vehicle control group, until 144 hours)?
A: above 2 ng/ml

Q: Which “period of drug delivery following MN treatment” value [10] does the source give for `O=C(O)Cc1ccccc1Nc1c(Cl)cccc1Cl` [diclofenac, diclofenac sodium] here?
A: 7 days

Q: With `CCCCCCCCCCCCOS(=O)(=O)[O-].[Na+]` [sodium lauryl sulfate] as the compound, how does the “Δa* value” [11] read?
A: 12.3
